From patent publication US7786141B2 (Vertex Pharmaceuticals Incorporated, priority 2004, dated 2010) come the findings set out here.

One test has as its target T1, M4 muscarinic receptor (Homo sapiens, UniProt P08173).
T1 construct: expressed in transfected cells; host or cells: CHO (M4-CHO)
T1 sequence (P08173 1-479): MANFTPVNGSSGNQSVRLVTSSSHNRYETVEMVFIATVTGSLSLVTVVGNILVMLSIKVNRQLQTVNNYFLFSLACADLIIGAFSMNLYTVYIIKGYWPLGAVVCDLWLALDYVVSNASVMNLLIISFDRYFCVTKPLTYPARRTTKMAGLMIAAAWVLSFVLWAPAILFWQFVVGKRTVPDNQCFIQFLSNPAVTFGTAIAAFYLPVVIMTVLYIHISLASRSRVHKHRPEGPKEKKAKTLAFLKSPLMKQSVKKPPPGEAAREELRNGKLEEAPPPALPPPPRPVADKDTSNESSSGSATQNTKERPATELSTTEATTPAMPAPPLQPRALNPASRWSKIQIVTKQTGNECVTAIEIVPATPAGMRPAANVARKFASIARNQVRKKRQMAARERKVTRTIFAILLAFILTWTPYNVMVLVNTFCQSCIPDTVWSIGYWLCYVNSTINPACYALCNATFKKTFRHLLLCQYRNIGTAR
Nature of the test: Functional mobilization of intracellular calcium (FLIPR) in M4-CHO cells. Format: cell-based. As to conditions: M4 receptor, calcium mobilization; for Emax: read-out: M4 Efficacy. The procedure: (§1) Functional Mobilization of Intracellular Calcium to Determine Muscarinic Receptor Activity:
(§2) CHO cells expressing muscarinic receptors (M1 to M5) are grown as monolayers in tissue culture flasks at 37° C. in a humidified atmosphere containing 5% CO2 and passaged every 3-5 days. The growth media is Dulbecco's modified eagles medium (DMEM, Gibco Cat# 12430-054), containing 25 mM Hepes and supplemented with Fetal Bovine Serum (Hyclone, cat# SH30071.03), 0.1 mM of MEM non-essential amino acids (GIBCO, Cat# 11140-050), 1 mM MEM Sodium Pyruvate (GIBCO Cat# 11360-070) and 100 units/ml of Penicillin G and 100 μg/ml of Streptomycin (GIBCO Cat# 15140-122). The recombinant muscarinic receptor cell lines are grown under antibiotic pressure with media containing 25 μg/ml zeocin and 500 μg/ml G418 (M1-CHO), 4 μg/ml puromycin, 50 μg/ml zeocin and 2.5 μg/ml blasticidin (M2 and M4-CHO) or 50 μg/ml zeocin and 4 μg/ml puromycin (M3 and M5-CHO).
(§3) Cells are harvested at 80-90% confluence using Versene (GIBCO Cat# 15040-066), collected by centrifugation and seeded 18-24 hrs prior to running the calcium assay at a density of 5,000 cells/well in back-walled, clear-bottomed 384-well plates (BD Biocoat, poly-D-lysine, Cat#356663). The day of the experiment, the cells are washed with a plate washer (Bioteck Instruments, ELX 405) using bath 1 buffer (140-mM NaCl, 4.5-mM KCl, 2-mM CaCl2, 1-mM MgCl2, 10-mM Hepes-Na, 10-mM Glucose, pH 7.4, with NaOH) containing 1 mM Probenecid. Next, the calcium dye Fluo-3 (25 μl/well of Fluo-3 AM at 4 μM, Molecular Probes F-1241, in Bath 1 buffer containing 1 mM Probenecid) is added to the 25 μl of Bath 1 remaining in each well after the plate wash and the dye is loaded at 37° C. in the tissue culture incubator for 60-90 min. The fluorescent dye is removed using the plate washer with Bath 1 containing 1 mM Probenecid, leaving 25 μl/well of this solution after the wash. Alternatively, cells can be loaded with the calcium indicator from Molecular Devices (Calcium 3 Assay Reagents, Cat # R7181) adding 5 μl of a 5× solution dye in Bath 1 containing 1 mM Probenecid (10 ml per dye flask cat# R7182 to generate a solution 20×) to 20 μl of the same buffer. After loading for 60 min, the experiment can be run without having to remove the dye.
(§4) Compounds are prepared at a 2× fold concentration in a 96-well plate (round bottom, Costar Corning cat# 3656), by reconstituting the pre-spotted compounds in bath 1 containing 1 mM probenecid. The final concentration DMSO is 0.5%, and the amount of DMSO is normalized across the assay plate. To determine an agonist action of the compounds on muscarinic receptors, the reconstituted compounds are added (25 μl compound/well) to the cell assay plate (containing 25 μl/well) using the multi-channel robotic system of the FLIPR 3 Instrument (Molecular Devices, Sunnyvale, Calif.). To determine a functional inhibitory action of the compounds on muscarinic receptors, the reconstituted compounds are added (25 μl compound/well) to the assay plate and pre-incubated for 15 min prior to adding 25 μl of Carbachol at 3× the EC80 for each muscarinic subtype. Alternatively, the compounds can be co-applied simultaneously with the agonist. In both assay modes, the fluorescence is recorded for 60 sec (excitation wavelength is […] and emission wavelength 540 nm) using the FLIPR 3 instrument.
(§5) The potency, efficacy and selectivity of the muscarinic compounds were evaluated by screening the compound activity across the whole family (M1 to M5 cells). Compounds were also screened for activity on other proteins such as other GPCRs and ion channels to determine selectivity on M4 receptors.
Background: Calcium assays in cells follow changes in intracellular calcium, usually with a dye or a luminescent sensor.

In the next test the target is T2, M1 muscarinic receptor (Homo sapiens, UniProt P11229).
T2 construct: expressed in transfected cells; host or cells: CHO (M1-CHO)
T2 sequence (P11229 1-460): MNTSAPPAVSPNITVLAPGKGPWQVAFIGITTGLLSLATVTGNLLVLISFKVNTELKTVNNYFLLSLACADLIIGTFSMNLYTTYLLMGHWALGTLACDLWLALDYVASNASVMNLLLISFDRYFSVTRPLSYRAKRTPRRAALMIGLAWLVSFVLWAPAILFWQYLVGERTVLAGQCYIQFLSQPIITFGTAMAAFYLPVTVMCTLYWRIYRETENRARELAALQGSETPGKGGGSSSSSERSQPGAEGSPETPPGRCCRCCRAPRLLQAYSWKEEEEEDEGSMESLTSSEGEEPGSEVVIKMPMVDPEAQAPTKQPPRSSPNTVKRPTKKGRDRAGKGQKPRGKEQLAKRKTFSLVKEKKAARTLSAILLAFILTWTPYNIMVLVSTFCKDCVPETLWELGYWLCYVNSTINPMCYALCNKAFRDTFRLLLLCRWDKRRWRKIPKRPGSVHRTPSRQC
As to the kind of experiment: Functional mobilization of intracellular calcium (FLIPR) in M1-CHO cells. As to conditions: M1 receptor, calcium mobilization; for Emax: read-out: M1 Efficacy. It is filed as cell-based. The protocol: as §1, §2, §3, §4, §5

As for `Clc1ccc2c(c1)C1(CCN([C@H]3C[C@@H]4CC[C@@H]3C4)CC1)CO2` [compound 1], at M4 muscarinic receptor, the “M4 Activity” value is “xx (activity was measured to be between 0.1 μM and 1.0 μM)”; the Emax was > 85%. On M1 muscarinic receptor, the “M1 Activity” value is “xx (activity was measured to be between 0.1 μM and 1.0 μM)”; the Emax was in the range of 65 to 85%.
For `CC(=O)NC1CC2(CCN(C3CCCCC3)CC2)c2ccccc21` (centres unmarked) [compound 2], on M4 muscarinic receptor, the “M4 Activity” value is recorded as “x (activity was measured to be greater than 1.0 μM)” and the Emax was < 65%. Moreover, on M1 muscarinic receptor, the “M1 Activity” value is “x (activity was measured to be greater than 1.0 μM)” and the Emax was < 65%.
Turning to `Cc1ccc2c(c1)C1(CCN(CC3CC4C=CC3C4)CC1)CN2` (centres unmarked) [compound 3], at M4 muscarinic receptor, the “M4 Activity” value was “xx (activity was measured to be between 0.1 μM and 1.0 μM)”; the Emax lay in the range of 65 to 85%. At M1 muscarinic receptor, the “M1 Activity” value was “xxx (activity was measured to be less than 0.1 μM)” and the Emax lay in the range of 65 to 85%.
Consider `CC(=O)N[C@H]1CC2(CCN(C3C4CC5CC(C4)CC3C5)CC2)c2ccccc21` (some centres unmarked) [compound 4], for which, on M4 muscarinic receptor, the “M4 Activity” value is reported as “x (activity was measured to be greater than 1.0 μM)” and the Emax was < 65%. On M1 muscarinic receptor, the “M1 Activity” value is recorded as “xxx (activity was measured to be less than 0.1 μM)” and the Emax is < 65%.
As to `Clc1ccc2c(c1)C1(CCN(C3CCCCC3)CC1)CO2` [compound 5], on M4 muscarinic receptor, the “M4 Activity” value is “xxx (activity was measured to be less than 0.1 μM)” and the Emax was > 85%. At M1 muscarinic receptor, the “M1 Activity” value is listed as “xxx (activity was measured to be less than 0.1 μM)” and the Emax was 65 to 85%.
For `CCOC(=O)N1CCC(N2CCC3(CC2)CN(C(C)=O)c2ccc(-c4cccc(C)c4)cc23)CC1` [compound 6], on M4 muscarinic receptor, the “M4 Activity” value is “xx (activity was measured to be between 0.1 μM and 1.0 μM)”; the Emax lay within 65 to 85%. For the same compound, on M1 muscarinic receptor, the “M1 Activity” value is “xxx (activity was measured to be less than 0.1 μM)” and the Emax lay in the range of 65 to 85%.
With `O=C1Nc2ccccc2C12CCN(CC1CC3C=CC1C3)CC2` (centres unmarked) [compound 7], on M4 muscarinic receptor, the “M4 Activity” value is “xx (activity was measured to be between 0.1 μM and 1.0 μM)”; the Emax was > 85%. In addition, at M1 muscarinic receptor, the “M1 Activity” value is on record as “xxx (activity was measured to be less than 0.1 μM)” and the Emax was 65 to 85%.
As for `CC(=O)NC1CC2(CCN(C3CC4CCC(C4)C3)CC2)c2ccccc21` (centres unmarked) [compound 8], on M4 muscarinic receptor, the “M4 Activity” value was “xx (activity was measured to be between 0.1 μM and 1.0 μM)”; the Emax was 65 to 85%. Besides, on M1 muscarinic receptor, the “M1 Activity” value is “xx (activity was measured to be between 0.1 μM and 1.0 μM)”; the Emax is < 65%.
Take `CCOC(=O)N1C2CCC1CC(N1CCC3(CC1)CN(C(C)=O)c1ccc(C)cc13)C2` (centres unmarked) [compound 9]: on M4 muscarinic receptor, the “M4 Activity” value is recorded as “x (activity was measured to be greater than 1.0 μM)” and the Emax was 65 to 85%. Further, on M1 muscarinic receptor, the “M1 Activity” value is listed as “xxx (activity was measured to be less than 0.1 μM)” and the Emax was in the range of 65 to 85%.
Consider `CCOC(=O)N1CCC(N2CCC3(CC2)CN(C(C)=O)c2ccc(-c4ccc(NC(C)=O)cc4)cc23)CC1` [compound 10], for which, on M4 muscarinic receptor, the “M4 Activity” value is “xx (activity was measured to be between 0.1 μM and 1.0 μM)”; the Emax fell in the range of 65 to 85%. For the same compound, on M1 muscarinic receptor, the “M1 Activity” value is “xx (activity was measured to be between 0.1 μM and 1.0 μM)”; the Emax is 65 to 85%.
In the case of `C=Cc1ccc2c(c1)C1(CCN(C3CCN(C(=O)OCC)CC3)CC1)CN2C(C)=O` [compound 11], on M4 muscarinic receptor, the “M4 Activity” value is “x (activity was measured to be greater than 1.0 μM)” and the Emax was < 65%. Also, at M1 muscarinic receptor, the “M1 Activity” value is “x (activity was measured to be greater than 1.0 μM)” and the Emax is < 65%.
On to `CCC(=O)CCN1CC2(CCN(C[C@@H]3C[C@H]4C=C[C@H]3C4)CC2)c2cc(F)ccc21` [compound 12], for which, at M4 muscarinic receptor, the “M4 Activity” value is “xx (activity was measured to be between 0.1 μM and 1.0 μM)”; the Emax is < 65%. In addition, on M1 muscarinic receptor, the “M1 Activity” value is on record as “xxx (activity was measured to be less than 0.1 μM)” and the Emax was < 65%.
On to `Fc1ccc2c(c1)C1(CCN(CC3CCC4CCC3C4)CC1)CN2` (centres unmarked) [compound 13], for which, on M4 muscarinic receptor, the “M4 Activity” value is recorded as “x (activity was measured to be greater than 1.0 μM)” and the Emax was < 65%. Also, at M1 muscarinic receptor, the “M1 Activity” value is “xx (activity was measured to be between 0.1 μM and 1.0 μM)”; the Emax is 65 to 85%.
For the compound `CC(=O)N1CC2(CCN(CC3CCN(C(=O)O[C@@H]4CCOC4)CC3)CC2)c2cc(F)ccc21` [compound 14], on M4 muscarinic receptor, the “M4 Activity” value is “xxx (activity was measured to be less than 0.1 μM)” and the Emax is > 85%. Also, at M1 muscarinic receptor, the “M1 Activity” value is reported as “xxx (activity was measured to be less than 0.1 μM)” and the Emax was 65 to 85%.
As to `CCCC1CCC(N2CCC3(CC2)C[C@H](NC(C)=O)c2ccccc23)CC1` (some centres unmarked) [compound 15], at M4 muscarinic receptor, the “M4 Activity” value is “xx (activity was measured to be between 0.1 μM and 1.0 μM)”; the Emax was > 85%. On M1 muscarinic receptor, the “M1 Activity” value is on record as “xxx (activity was measured to be less than 0.1 μM)” and the Emax was 65 to 85%.
Turning to `CS(=O)(=O)N1CC2(CCN(C3CC4CCC(C3)N4C(=O)O[C@@H]3CCOC3)CC2)c2cc(F)ccc21` (some centres unmarked) [compound 16], at M4 muscarinic receptor, the “M4 Activity” value is reported as “xxx (activity was measured to be less than 0.1 μM)” and the Emax was in the range of 65 to 85%. Besides, at M1 muscarinic receptor, the “M1 Activity” value is “xxx (activity was measured to be less than 0.1 μM)” and the Emax is 65 to 85%.
In the case of `CCOC(=O)N1CCC(N2CCC3(CC2)CN(C(=O)C2CCCC2)c2ccc(F)cc23)CC1` [compound 17], at M4 muscarinic receptor, the “M4 Activity” value is “xx (activity was measured to be between 0.1 μM and 1.0 μM)”; the Emax fell in the range of 65 to 85%. At M1 muscarinic receptor, the “M1 Activity” value was “xx (activity was measured to be between 0.1 μM and 1.0 μM)”; the Emax was < 65%.
